Assays:
Assay type in all cases: cell-based
[1] = test system: MDA-MB-436 BRCA mutant cells; assay: Active replication forks analysis (BrdU foci), MDA-MB-436; settings: 72 hours after miRNA transfection, BrdU 30 minutes
Experimental: Active Replication Forks Analysis. Active Replication forks after miR223-3p mimic transfection were measured using immunofluorescent detection of BrdU foci after DNA denaturation. Briefly, 72 hours after transfection, cells were released into fresh media containing 10 uM BrdU (BD Biosciences, Franklin Lakes, N.J.) for 30 min. After washing, cells on coverslip were fixed and the DNA denatured using hydrochloric acid for BrdU immunostaining. The coverslips were processed for immunostaining using BrdU-specific antibody (Cell Signaling, Danvers, Mass.) and then incubated with a secondary antibody conjugated with Alexa Fluor dye from Invitrogen for 1 h. Cells were analyzed as above using the laser scanning confocal microscope. At least five hundred cells were counted for each condition from at least six distinct slides per condition for statistical analysis.

[2] = test system: other DNA repair components as well as PARP1; assay: Western blot of DNA repair components after miR223-3p mimic; settings: MDA MB 436, HCC1937 and H2452 cells, 48 hours after transfection, vs scr control
Experimental: (§1) Cell Culture, miRNA transfection and Survival Assay. The BRCA1-deficient MDA-MB-436 breast cancer cells were cultured in DMEM supplemented with 10% FBS and 1% penicillin and streptomycin. BRRCA1-deficient UWB1.289 ovarian cancer cells were cultured and maintained in 50% MEBM medium with growth factors and 50% RPMI medium supplemented with 3% FBS and 1% penicillin and streptomycin. BAP1-mutant H2452 mesothelioma cells were cultured in RPMI 1640 medium supplemented with 10% fetal bovine serum and 1% penicillin and streptomycin. 25 nm of mirVana miR223-3p mimic from Ambion life technologies (Cat #4464067) was used to deplete PARP1 protein in these cell lines. Mir223-3p was encapsulated into the lipid transfection complex, RNAiMAX. 25 nm of mir223-3p was incubated in 500 µL Opti-MEM plus 6 ul of RNAiMAX for 20 mins at room temperature, and then added to the cells for a final volume of 1 ml. After 48 hours, the cells were trypsinized, counted and plated in 6 well plates at a density of 4000 cells per well, in triplicates. After 14 days of incubation, colonies were stained with 0.1% crystal violet in methanol and counted using Image J software. PARP1 repression by mir223-3p was shown by western blot. PARP1 antibody was purchased from Cell Signaling (46D11). FIG. 44 illustrates the depletion of other DNA repair components in addition to PARP1.

[3] = test system: UWB1.289 (ovarian cancer) cells, deficient in BRCA1; assay: Colony formation survival assay, UWB1.289; settings: UWB1.289, 25 nm miR-223-3p mimic, colonies counted after 14 days
Experimental: (§2) Colony formation assays measures the ability of a single cell to not only survive, but also to proliferate. Thus, it is an indirect measurement of cancer stem cell activity, the ability of a single cell to give rise to a host of progeny. The BRCA1-deficient MDA-MB-436 breast cancer cells were cultured in DMEM supplemented with 10% FBS and 1% penicillin and streptomycin. BRRCA1-deficient UWB1.289 ovarian cancer cells were cultured and maintained in 50% MEBM medium with growth factors and 50% RPMI medium supplemented with 3% FBS and 1% penicillin and streptomycin. 25 nm of mirVana miR-223 3p mimic from Ambion life technologies (Cat #4464067) was used to deplete PARP1 protein in these cell lines. Mir223-3p was encapsulated into the lipid transfection complex, RNAiMAX. […] After 48 hours, the cells were trypsinized, counted and plated in 6 well plates at a density of 4000 cells per well, in triplicates. After 14 days of incubation, colonies were stained with 0.1% crystal violet in methanol and counted using Image J software. […]
(§3) Cell Culture, miRNA transfection and Survival Assay. […] After 48 hours, the cells were trypsinized, counted and plated in 6 well plates at a density of 4000 cells per well, in triplicates. After 14 days of incubation, colonies were stained with 0.1% crystal violet in methanol and counted using Image J software. […]

aNHEJ = assay: Alternative non-homologous end joining (aNHEJ) assay in EJ2-GFP U2OS cells; settings: prior exposure to miR-223-3p, I-SceI expression
Experimental: PARP1 is involved in the initial step in aNHEJ DNA double strand break repair. If PARP1 is repressed, then aNHEJ is decreased. The EJ2-GFP U2OS system was used to assess aNHEJ. This reporter system contains single, integrated copy of reporter with I-SceI target sites. These sites were cleaved upon transfection of an I-SceI expression vector. Cells were transfected with miR-223 3p mimic using RNAiMAX. 24 hours after transfection, the cells were transfected with I-SceI vector using polyethylenimine (PEI). After 72 hours, EJ2 cells were trypsinized, washed with PBS and GFP-positive cells were measured using FACSort (Becton-Dickinson, San Jose, Calif.). The GFP positive cells are proportional to the aNHEJ frequency.
Alternative Non-Homologous End Joining (aNHEJ) assay. PARP1 is the initial step in aNHEJ DNA double strand break repair. If PARP1 is repressed, then aNHEJ will be decreased. The EJ2-GFP U2OS system was used to assess aNHEJ. This reporter system contains single, integrated copy of reporter with I-SceI target sites. These sites were cleaved upon transfection of an I-SceI expression vector. Cells were transfected with miR223 3p mimic using RNAiMAX. […] After 72 hours, EJ2 cells were trypsinized, washed with PBS and GFP-positive cells were measured using FACSort (Becton-Dickinson, San Jose, Calif.). […]

PARP1 = assay: Western analysis of PARP1 after exposure to miR-223-3p mimic; settings: for PARP1 protein expression (Western): breast and ovarian cell lines harboring BRCA1 mutant (MDA-MB-436, UWB1.289); for PARP1 repression/knockdown (Western): cell line not given, 25 nM mimic in FIG. 33
Experimental: Colony formation assays measures the ability of a single cell to not only survive, but also to proliferate. Thus, it is an indirect measurement of cancer stem cell activity, the ability of a single cell to give rise to a host of progeny. The BRCA1-deficient MDA-MB-436 breast cancer cells were cultured in DMEM supplemented with 10% FBS and 1% penicillin and streptomycin. BRRCA1-deficient UWB1.289 ovarian cancer cells were cultured and maintained in 50% MEBM medium with growth factors and 50% RPMI medium supplemented with 3% FBS and 1% penicillin and streptomycin. 25 nm of mirVana miR-223 3p mimic from Ambion life technologies (Cat #4464067) was used to deplete PARP1 protein in these cell lines. Mir223-3p was encapsulated into the lipid transfection complex, RNAiMAX. 25 nm of miR-223-3p was incubated in 500 μL Opti-MEM plus 6 μl of RNAiMAX for 20 mins at room temperature and then added to the cells for a final volume of 1 ml. After 48 hours, the cells were trypsinized, counted and plated in 6 well plates at a density of 4000 cells per well, in triplicates. After 14 days of incubation, colonies were stained with 0.1% crystal violet in methanol and counted using Image J software. PARP1 repression by miR-223-3p was shown by western blot. PARP1 antibody was purchased from Cell Signaling (46D11).
as §1

PARP1 3′ UTR mRNA = assay: Luciferase assay for stability of PARP1 3′ UTR mRNA in A549 cells; settings: normalized against Renilla luciferase
Experimental: (§4) A549 cells were transfected with miR-223-3p mimic using RNAiMAX as above. After 6 hours, these cells were transfected with PARP 3′UTR plasmid fused with dual luciferase reporter from GeneCopoeia using Lipofectamine 2000. 48 hours post-transfection, cells were collected and assessed for luciferase activity using Luc-Pair Dual Luciferase assay kit from GeneCopoeia. The firefly luciferase activity is normalized against Renilla luciferase, which serves as a transfection control.
as §4, with “Luciferase assay for assessing stability of PARP1 3′ UTR mRNA. A549” for “A549”, “miR223-3p” for “miR-223-3p”

[4] = test system: MDA-MB-436 (breast cancer) cells, deficient in BRCA1; assay: Colony formation survival assay, MDA-MB-436; settings: MDA-MB-436, 25 nm miR-223-3p mimic, colonies counted after 14 days
Experimental: as §2, §3

[5] = test system: endogenous miR-223-3p in HL60 cells; assay: qRT-PCR of endogenous miR-223-3p in HL60 cells after Ara-C; settings: 50 μM Ara-C, different time points
Experimental: Quantitative real time PCR (qRT-PCR) measuring endogenous miR-223 If miR-223-3p is a physiologic regulator of PARP1 expression, then its expression should be repressed after DNA damage, when higher levels of PARP1 are required to repair this damage. Mir223-3p is most highly expressed in hematopoietic cells, such as the HL60 cell line. HL60 cells were treated with 50 μM cytarabine (Ara-C) for lhr, 4 hr, 8 hr, 12 hr and 24 hr. Western blot analysis was performed to examine PARP1 protein levels in these samples. For measuring levels of miR-223-3p, cells were collected at the above time points, RNA isolated using the Qiagen RNeasy kit. cDNA conversion was then performed using first-strand cDNA synthesis kit for miRNA from Origene (HP100042). qRT-PCR for miR-223 3p was performed on a 7900HT Fast Real-Time PCR system (ABI) according to Origene protocol and ACT values were calculated. […]
Quantitative Real Time PCR (qRT-PCR) Measuring Endogenous miR223-3p. […] For measuring levels of miR223-3p, cells were collected at the above time points, RNA isolated using the Qiagen RNeasy kit. cDNA conversion was then performed using first-strand cDNA synthesis kit for miRNA from Origene (HP100042). qRT-PCR for miR223 3p was performed on a 7900HT Fast Real-Time PCR system (ABI) according to Origene protocol and ΔCT values were calculated. […]

[6] = test system: Human Mesothelioma cells (H-Meso 01A); assay: Colony formation of BAP1 mutant human mesothelioma cells treated with olaparib; settings: 3 olaparib, 10 days continuous
Experimental: These cells were treated with the PARP inhibitor, olaparib. Human Mesothelioma cells (H-Meso 01A) were cultured in RPMI media supplemented with 10% FBS and 1% Penicillin/Streptomycin. These cells were seeded in a 6-well plate at a density of 4000 cells/well and allowed to grow for 18 hours. Of the six wells, three wells were treated with […] (LC laboratories, Cat #0-9201) each and the other three wells were considered as controls. The cells were allowed to grow for 10 days. Olaparib stayed on the cells throughout the experiment. After 10 days of incubation, colonies were stained with 0.1% crystal violet in methanol and counted using Image J software. Olaparib killed at least 80-90% of the cells. The experiment was done three times, each in triplicates and the average from all three times was calculated (FIG. 24).

Compound: miR-223-3p: mirVana miR-223 3p mimic from Ambion life technologies (Cat #4464067); miR-223-3p is SEQ ID NO: 75; transfected with RNAiMAX (UGUCAGUUUGUCAAAUACCCCA; listed as RNA, chemistry not given here) [mirVana miR-223 3p mimic from Ambion life technologies (Cat #4464067); transfected with RNAiMAX]
- active replication forks (BrdU) [1]: decreases active replication forks
- depletion of DNA repair components (Western) [2]: depletes other DNA repair components as well as PARP1
- number of colonies [3]: decreased number of colonies
- fraction of EJ2 cells with productive aNHEJ (GFP positive cells) (aNHEJ): decreased
- PARP1 knockdown (Western) (PARP1; BAP1 mutant mesothelioma): knockdown of PARP1
- PARP1 knockdown (Western) (PARP1; EJ2-GFP cell reporter system): knockdown of PARP1
- PARP1 protein expression (Western) (PARP1): represses PARP1 protein expression
- PARP1 protein expression (Western) (PARP1; listed as mir223 mimic): knockdown of PARP1
- PARP1 repression/knockdown (Western) (PARP1): Knockdown of PARP1
- PARP1 repression/knockdown (Western) (PARP1; listed as miR223 mimic): repression of PARP1
- Luciferase expression (PARP1 3′ UTR linked to Firefly Luciferase) (PARP1 3′ UTR mRNA): decreased
- Luciferase expression (PARP1 3′ UTR linked to Firefly Luciferase) (PARP1 3′ UTR mRNA; listed as miR223-3p mimic): inhibition of PARP1
- number of colonies [4]: decreased number of colonies

Compound: Nc1ccn([C@@H]2O[C@H](CO)[C@@H](O)[C@@H]2O)c(=O)n1 [Ara-C, cytarabine]
- levels of endogenous miR-223-3p (qRT-PCR) [5]: gradual decrease

Compound: O=C(c1cc(Cc2n[nH]c(=O)c3ccccc23)ccc1F)N1CCN(C(=O)C2CC2)CC1 [Olaparib, olaparib]
- cells killed (colony formation) [6]: 80-90%

Source: patent publication US11365415B2, “Use of miR-223-3p as a cancer therapeutic and method for treating cancer using the same” (University of Florida Research Foundation, Inc., priority 2016, dated 2022)
